A value given as a limit tells only on which side of the number the result lay.

For test [1], the target named is T1, ΔF508-CFTR (Homo sapiens, UniProt P13569, DEL508-508).
T1 construct: host or cells: CFBE41o-, doxycycline-inducible
The test is described as follows: CFTR cell surface levels using HRP-tagged ΔF508-CFTR expressing CFBE cells, in the presence of a co-corrector. Conditions: HRP-tagged ΔF508-CFTR CFBE cells, in the presence of 3 μM co-corrector; for EC50: read-out: EC50. The format is cell-based. Summed up:
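Chemiluminescent read-out of surface HRP (15 min, dark) after PBS washes. Activity is normalized as 100×(sample−DMSO)/(3 μM co-corrector alone−DMSO).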

The target in test [2] is T1, ΔF508-CFTR. The test is described as follows: CFTR cell surface levels using HRP-tagged ΔF508-CFTR expressing CFBE cells, intrinsic corrector capacity. The conditions noted are these: HRP-tagged ΔF508-CFTR expressing CFBE41o- cells, compound alone (intrinsic corrector capacity), 20 hours at 33° C.; for EC50: read-out: EC50. Format: cell-based. On the set-up: % Activation: concentration or dose not given beside the values. Summed up: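 Surface ΔF508-CFTR was measured as HRP chemiluminescence from an extracellular-loop-4 tag, expressed as percent activity between DMSO and a […] corrector control.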

T1 sequence (P13569 with tags, fused parts or gaps DEL508-508): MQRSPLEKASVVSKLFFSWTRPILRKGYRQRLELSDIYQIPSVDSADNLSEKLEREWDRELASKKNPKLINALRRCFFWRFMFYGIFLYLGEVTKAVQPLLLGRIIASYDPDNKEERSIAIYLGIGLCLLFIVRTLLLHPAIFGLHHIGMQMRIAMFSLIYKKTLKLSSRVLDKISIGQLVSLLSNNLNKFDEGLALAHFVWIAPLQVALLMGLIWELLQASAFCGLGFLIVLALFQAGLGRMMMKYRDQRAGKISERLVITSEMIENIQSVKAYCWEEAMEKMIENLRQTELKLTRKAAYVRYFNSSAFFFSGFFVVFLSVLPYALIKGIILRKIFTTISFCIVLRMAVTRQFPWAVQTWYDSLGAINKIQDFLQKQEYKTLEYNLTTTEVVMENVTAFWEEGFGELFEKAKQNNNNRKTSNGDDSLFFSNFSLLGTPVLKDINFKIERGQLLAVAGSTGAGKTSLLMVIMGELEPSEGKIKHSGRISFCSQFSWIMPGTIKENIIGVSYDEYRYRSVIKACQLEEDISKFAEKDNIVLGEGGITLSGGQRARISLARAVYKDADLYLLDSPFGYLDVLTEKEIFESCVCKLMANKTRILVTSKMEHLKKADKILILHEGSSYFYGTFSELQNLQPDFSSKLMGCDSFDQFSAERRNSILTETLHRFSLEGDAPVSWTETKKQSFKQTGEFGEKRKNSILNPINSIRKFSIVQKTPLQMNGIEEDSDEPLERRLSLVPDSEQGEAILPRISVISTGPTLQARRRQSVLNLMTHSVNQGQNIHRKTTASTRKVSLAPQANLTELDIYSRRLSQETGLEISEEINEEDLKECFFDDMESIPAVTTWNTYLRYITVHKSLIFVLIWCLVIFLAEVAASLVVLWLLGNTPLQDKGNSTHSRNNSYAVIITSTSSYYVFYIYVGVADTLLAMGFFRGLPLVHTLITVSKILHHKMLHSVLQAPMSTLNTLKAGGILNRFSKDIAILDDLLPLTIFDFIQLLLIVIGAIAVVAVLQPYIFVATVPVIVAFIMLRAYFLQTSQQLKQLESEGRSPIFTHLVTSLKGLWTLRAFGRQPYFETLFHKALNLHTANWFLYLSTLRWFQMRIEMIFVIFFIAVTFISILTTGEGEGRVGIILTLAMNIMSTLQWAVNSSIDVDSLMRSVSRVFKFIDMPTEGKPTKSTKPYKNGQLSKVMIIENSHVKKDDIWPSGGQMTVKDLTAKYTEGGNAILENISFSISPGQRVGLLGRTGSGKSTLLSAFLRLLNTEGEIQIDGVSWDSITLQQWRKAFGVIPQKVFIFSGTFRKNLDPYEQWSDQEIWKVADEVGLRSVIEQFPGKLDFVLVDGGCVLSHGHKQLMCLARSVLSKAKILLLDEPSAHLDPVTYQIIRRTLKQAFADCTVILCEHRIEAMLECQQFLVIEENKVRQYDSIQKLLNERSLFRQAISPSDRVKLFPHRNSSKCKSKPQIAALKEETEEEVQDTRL

On to `COCCS(=O)(=O)NC(=O)c1cc(-c2ccc(N3CCOCC3)cc2)c2c(C(C)C)nn(C3CCOC3)c2n1` (centres unmarked) [Compound 232, N-(2-methoxyethanesulfonyl)-4-[4-(morpholin-4-yl)phenyl]-1-(oxolan-3-yl)-3-(propan-2-yl)-1H-pyrazolo[3,4-b]pyridine-6-carboxamide], for which, in test [1], the “% Activation” value turned out to be 199.75% and the EC50 is 1730 nM. In addition, in test [2], the “% Activation” value is 71.64% and the half-maximal effective concentration (EC50) stood at 1680 nM.

For `COCCS(=O)(=O)NC(=O)c1cc(-c2ccc(N3CCOCC3)cc2)c2cnn(-c3ccccc3)c2n1` [Compound 233, N-(2-methoxyethanesulfonyl)-4-[4-(morpholin-4-yl)phenyl]-1-phenyl-1H-pyrazolo[3,4-b]pyridine-6-carboxamide], the “% Activation” value in test [1] is given as 206.57%; in test [2] it was 58.34%. The values for the EC50 in test [1] and in test [2] were 1930 nM and 2440 nM, respectively.

For the compound `COCCS(=O)(=O)NC(=O)c1cc(-c2ccc(OC)cc2)c2c(C)nn(C(C)C)c2n1` [Compound 234, N-(2-methoxyethanesulfonyl)-4-(4-methoxyphenyl)-3-methyl-1-(propan-2-yl)-1H-pyrazolo[3,4-b]pyridine-6-carboxamide], in test [1], the “% Activation” value is given as 128.3% and the EC50 was more than 10000 nM. In addition, in test [2], the “% Activation” value was 17.89% and the EC50 is more than 10000 nM.

Consider `COCCS(=O)(=O)NC(=O)c1cc(-c2ccc(N3CCOCC3)cc2)c2c(C)nn(C3CC3)c2n1` [Compound 235, 1-cyclopropyl-N-(2-methoxyethanesulfonyl)-3-methyl-4-[4-(morpholin-4-yl)phenyl]-1H-pyrazolo[3,4-b]pyridine-6-carboxamide], for which the “% Activation” value amounted to 257.55% in test [1] and 102.76% in test [2]. Besides, the concentration for a half-maximal effect (EC50) in test [1] worked out at 2490 nM; in test [2], 3270 nM.

With `CS(=O)(=O)NC(=O)c1cc(OC[C@H](F)C2CCOCC2)c2c(C3CCC3)nn(-c3ccccc3)c2n1` [Compound 237, 3-cyclobutyl-4-[(2R)-2-fluoro-2-(oxan-4-yl)ethoxy]-N-(methanesulfonyl)-1-phenyl-1H-pyrazolo[3,4-b]pyridine-6-carboxamide], in test [1], the “% Activation” value was found to be 264.05% and the EC50 was determined as 222 nM. In test [2], the “% Activation” value was found to be 120% and the half-maximal effective concentration (EC50) worked out at 453 nM.

Turning to `Cc1nn(C2CCCCC2)c2nc(C(=O)NS(=O)(=O)C3CC3)cc(-c3ccc(N4CCOCC4)cc3)c12` [Compound 239, 1-cyclohexyl-N-(cyclopropanesulfonyl)-3-methyl-4-[4-(morpholin-4-yl)phenyl]-1H-pyrazolo[3,4-b]pyridine-6-carboxamide], the “% Activation” value in test [1] came out at 431.55%; in test [2] it was 184.6%. For the same compound, the EC50 turned out to be 1240 nM in test [1] and 999 nM in test [2].

With `COCC1CCN(c2cc(C(=O)NS(=O)(=O)c3cn[nH]c3)nc3c2c(C2CCC2)nn3-c2ccccc2)CC1` [Compound 253, 3-cyclobutyl-4-[4-(methoxymethyl)piperidin-1-yl]-1-phenyl-N-(1H-pyrazole-4-sulfonyl)-1H-pyrazolo[3,4-b]pyridine-6-carboxamide], the “% Activation” value in test [1] was determined as 454.4%; in test [2], 174.6%. The EC50 in test [1] turned out to be 251 nM; in test [2], 676 nM.

With `CC1(COc2cc(C(=O)NS(C)(=O)=O)nc3c2c(C2CCC2)nn3-c2ccccc2)COC1` [Compound 254, 3-cyclobutyl-N-(methanesulfonyl)-4-[(3-methyloxetan-3-yl)methoxy]-1-phenyl-1H-pyrazolo[3,4-b]pyridine-6-carboxamide], in test [1], the “% Activation” value is recorded as 312.1% and the 50% effective concentration (EC50) came out at 370 nM. In test [2], the “% Activation” value worked out at 117.5% and the EC50 was found to be 400 nM.

`COC1(CN2CCS(=O)(=O)CC2)CCN(c2cc(C(=O)NS(C)(=O)=O)nc3c2c(C2CCC2)nn3-c2ccccc2)CC1` [Compound 255, 3-cyclobutyl-4-{4-[(1,1-dioxo-1λ^6,4-thiazinan-4-yl)methyl]-4-methoxypiperidin-1-yl}-N-(methanesulfonyl)-1-phenyl-1H-pyrazolo[3,4-b]pyridine-6-carboxamide]: the “% Activation” value in test [1] is on record as 365.8%; in test [2] it was 122.3%. For the same compound, the EC50 in test [1] was 3330 nM; in test [2] it was 1880 nM.

Consider `COCCS(=O)(=O)NC(=O)c1cc(N2CCC(COC)CC2)c2c(C3CCC3)nn(-c3ccccc3)c2n1` [Compound 256, 3-cyclobutyl-N-(2-methoxyethanesulfonyl)-4-[4-(methoxymethyl)piperidin-1-yl]-1-phenyl-1H-pyrazolo[3,4-b]pyridine-6-carboxamide], for which the “% Activation” value in test [1] is reported as 508.63%; in test [2] it was 331.85%.

Take `CS(=O)(=O)NC(=O)c1cc(-c2ccc(N3CCC(C#N)CC3)nc2)c2c(n1)n(-c1ccccc1)nc2[C@H]1C[C@H](C)C1` [Compound 257, 4-[6-(4-cyanopiperidin-1-yl)pyridin-3-yl]-N-(methanesulfonyl)-3-(trans-3-methylcyclobutyl)-1-phenyl-1H-pyrazolo[3,4-b]pyridine-6-carboxamide]: the figures for the “% Activation” value in test [1] and in test [2] were 451.25% and 272.4%, respectively. Besides, the concentration for a half-maximal effect (EC50) in test [1] amounted to 74.3 nM; in test [2] it was 370 nM.

Turning to `CS(=O)(=O)NC(=O)c1cc(-c2ccc(N3CCC(C#N)CC3)nc2)c2c(OC3CCNCC3)nn(-c3ccccc3)c2n1` [Compound 258, 4-[6-(4-cyanopiperidin-1-yl)pyridin-3-yl]-N-(methanesulfonyl)-1-phenyl-3-[(piperidin-4-yl)oxy]-1H-pyrazolo[3,4-b]pyridine-6-carboxamide], the “% Activation” value in test [1] was determined as 127.1%; in test [2] it was 8.829%. The EC50 in test [1] and in test [2] was more than 10000 nM in each case.

`COCC1CCN(c2cc(C(=O)NS(=O)(=O)CCN3C(=O)c4ccccc4C3=O)nc3c2c(C2CCC2)nn3-c2ccccc2)CC1` [Compound 260, 3-cyclobutyl-N-[2-(1,3-dioxoisoindolin-2-yl)ethylsulfonyl]-4-[4-(methoxymethyl)-1-piperidyl]-1-phenyl-pyrazolo[3,4-b]pyridine-6-carboxamide]: in test [1], the “% Activation” value stood at 664.07% and the EC50 stood at 130 nM. Besides, in test [2], the “% Activation” value turned out to be 473.35% and the EC50 was 1870 nM.

With `COCC1CCN(c2cc(C(=O)NS(=O)(=O)CCN)nc3c2c(C2CCC2)nn3-c2ccccc2)CC1` [Compound 261, N-(2-aminoethanesulfonyl)-3-cyclobutyl-4-[4-(methoxymethyl)piperidin-1-yl]-1-phenyl-1H-pyrazolo[3,4-b]pyridine-6-carboxamide], in test [1], the “% Activation” value is 129.3% and the EC50 was more than 10000 nM. Besides, in test [2], the “% Activation” value was 26.85% and the 50% effective concentration (EC50) is more than 10000 nM.

In the case of `COCC1CCN(c2cc(C(=O)NS(C)(=O)=O)nc3c2c(C(C)C)nn3CC2CCC2)CC1` [Compound 262, 1-(cyclobutylmethyl)-N-(methanesulfonyl)-4-[4-(methoxymethyl)piperidin-1-yl]-3-(propan-2-yl)-1H-pyrazolo[3,4-b]pyridine-6-carboxamide], the figures for the “% Activation” value in test [1] and in test [2] were 420.17% and 232.07%, respectively. In addition, the half-maximal effective concentration (EC50) in test [1] stood at 523 nM; in test [2] it was 598 nM.

In the case of `COCC1CCN(c2cc(C(=O)NS(C)(=O)=O)nc3c2c(C(C)C)nn3CC(C)C)CC1` [Compound 264, N-(methanesulfonyl)-4-[4-(methoxymethyl)piperidin-1-yl]-1-(2-methylpropyl)-3-(propan-2-yl)-1H-pyrazolo[3,4-b]pyridine-6-carboxamide], the entries for the “% Activation” value in test [1] and in test [2] were 478.6% and 242.5%, respectively. Further, the results for the EC50 in test [1] and in test [2] were 3330 nM and 969 nM, respectively.

Take `COCCS(=O)(=O)NC(=O)c1cc(N2CCC(COC)CC2)c2c(C(C)C)nn(CC(C)C)c2n1` [Compound 265, N-(2-methoxyethanesulfonyl)-4-[4-(methoxymethyl)piperidin-1-yl]-1-(2-methylpropyl)-3-(propan-2-yl)-1H-pyrazolo[3,4-b]pyridine-6-carboxamide]: in test [1], the “% Activation” value is listed as 427.8% and the EC50 stood at 2140 nM. Besides, in test [2], the “% Activation” value was determined as 240.8% and the EC50 turned out to be 3330 nM.

Turning to `CC(C)c1nn(-c2ccc(F)cc2)c2nc(C(=O)NS(C)(=O)=O)cc(N3CCN(CC(F)(F)F)CC3)c12` [Compound 266, 1-(4-fluorophenyl)-N-(methanesulfonyl)-3-(propan-2-yl)-4-[4-(2,2,2-trifluoroethyl)piperazin-1-yl]-1H-pyrazolo[3,4-b]pyridine-6-carboxamide], the “% Activation” value was 328.87% in test [1] and 161.5% in test [2]. The EC50 in test [1] stood at 231 nM; in test [2], 332 nM.

For `COCC1CCN(c2cc(C(=O)NS(C)(=O)=O)nc3c2c(C(C)C)nn3-c2ccc(=O)n(C)n2)CC1` [Compound 268, N-(methanesulfonyl)-4-[4-(methoxymethyl)piperidin-1-yl]-1-(1-methyl-6-oxo-1,6-dihydropyridazin-3-yl)-3-(propan-2-yl)-1H-pyrazolo[3,4-b]pyridine-6-carboxamide], in test [1], the “% Activation” value is 122.05% and the EC50 was more than 10000 nM. In addition, in test [2], the “% Activation” value is listed as 5.213% and the EC50 is more than 10000 nM.
